According to EP4389107A1, “METHOD OF PREPARATION OF COSMETIC C[…] […] AND COSMETIC C[…] […]” (Aero-Bw K. Domagala Sp. Jawna, priority 2022, dated 2024):
Where “and” joins values, the source holds several entries; their conditions need not be identical. Equal values may be shown once.

System: Salmonella typhimurium TA98
Assay: Ames test, strain TA98
Type: cell-based
Settings: positive control at 2 µg/mL
Method: The aim of the study was to assess the mutagenic potential of three extracts obtained from stem cells using two strains of Salmonella typhimurium carrying two types of mutations: TA 98-reading frame shift and TA 100-base pair substitution.
The experimental procedure was carried out basing on the manufacturer's experimental protocol (Xenometrix).

## O=[N+]([O-])c1ccc2c(c1)Cc1ccccc1-2 [2-nitrofluorene (2-NF), 2-nitrofluorene]
  MOI (Multiplicity of induction compared to baseline): 6.9 and 5.6
